Experiments:
[1] = set-up: method as in PMID 29481859; details: absence of polymer; cited from earlier work
[2] = Equilibrium solubility of the drugs in PVP solutions (shake-flask solubility test); assay type: physicochemical
Method: An excess amount of the drug was added to 15 mL corning tubes containing either pure 0.1 M phosphate buffer (pH 7.4) or 0.1, 0.5 and 1% (w/v) solutions of PVP K15, K30, K60 or […], respectively. […] The saturated solution and the precipitate were separated by centrifugation for 10 min at 13,000 rpm in an Eppendorf Centrifuge 5810 R (Hamburg, Germany), followed by filtration intro ultra-performance liquid chromatography (UPLC) vials using a syringe filter (33 mm, 0.45 μm) PVDF membrane (2 mL filter sample prewet volume), acquired from Merck (Darmstadt, Germany). The tests were conducted in triplicate. The concentration of drug in the respective samples was quantified by reverse-phase chromatography using a Waters Acquity Classic UPLC system (Milford, MA, USA) equipped with an automated sample injector, a binary pump and a tunable UV detector. All samples were analyzed using a Waters Acquity UPLC BEH C18 column (130 Å, 1.7 μm, 2.1 × 50 mm) (Milford, MA, USA) at a column temperature of 50 °C for ketoconazole and tadalafil and 80 °C for albendazole. The samples were injected with a volume of s 6 μL and subsequently eluted at a flow rate of 0.8 mL/min. For albendazole and tadalafil, eluent A was a mixture of 90% (v/v) sodium sulfate (60 mM), di-ammonium hydrogen phosphate (5.5 mM) and phosphoric acid (34.5 mM) in Milli-Q water (pH 2.3) and 10% (v/v) acetonitrile. For ketoconazole, eluent A was a mixture of 90% (v/v) sodium sulfate (60 mM), di-ammonium hydrogen phosphate (5.5 mM) and phosphoric acid (34.5 mM) in Milli-Q water (pH 7.2) and 10% (v/v) acetonitrile. For tadalafil, albendazole and ketoconazole, eluent B was a mixture of 20% (v/v) Milli-Q water and 80% (v/v) acetonitrile. Albendazole was quantified in the samples using UV at a wavelength of 229 nm, while tadalafil was quantified at 284 nm and ketoconazole at 240 nm.

[3] = Supersaturation study by solvent-shift method (µDISS Profiler): induction time and slope of time–concentration profiles; assay type: physicochemical; details: for Influence of PVP concentration on tind and slope of the time–concentration profile / Influence of viscosity of the PVP solution on tind or slope of the time–concentration profile: multiple linear regression coefficient plot, 95% confidence interval
Excerpt: Time-concentration profiles of the drugs in a supersaturated solution in the absence and presence of PVP were obtained to study the influence of the polymer on the onset of the nucleation and precipitation rate of the drug from a supersaturated solution. Supersaturation of the drug was induced by the use of a method previously developed. Briefly, a […] ProfilerTM (Billerica, MA, USA) was used to obtain in situ UV spectra in the range from 200 to 720 nm. Probe tip lengths of 5, 10 or 20 mm were selected to obtain an absorbance in the range between 0.3 and 1. The vials were stirred using a crossbar magnet at ~100 rpm at a temperature of 37 °C. […] The UV wavelength range used to quantify the drug was 267-288 nm for albendazole, 304-360 nm for ketoconazole and 299-328 nm for tadalafil. […] Standard curves were prepared with six replicates by adding aliquots of 15 μL DMSO stock solution of the drug to the dissolution medium. The initial concentration of the drug was determined by using the highest concentration of the drug for which no instantaneous precipitation occurred. Precipitation was detected by a deviation from the linearity of the standard curve, a sharp shift in the baseline in the UV spectrum or through visual inspection of the solution. To induce supersaturation, 100 μL of a DMSO stock solution of the drug was transferred into glass vials containing 10 mL solutions of PVP K15, K30, K60 or […]. […] The drug concentration was monitored in situ by the second derivative of the UV absorbance. The second derivative was used to minimize UV interferences from the precipitate. The experiments were ended when the concentrations of the respective drugs reached their equilibrium solubility. The induction time of the time-concentration profiles was used as a surrogate for the onset of the nucleation of the respective drugs, and the slope of the time-concentration profiles was used as a surrogate for the precipitation rate of the respective drugs. The induction time (tind) and the slope of the time-concentration profile were determined using TA Instruments Trios software (New Castle, DE, USA). The induction time of the time-concentration profile in minutes was estimated using the onset time function via the tangent. The slope of the time-concentration profile in (μg/mL)/min was estimated using the slope function. Multiple linear regression analysis was conducted using Umetrics MODDE11 pro (Glostrup, Denmark) to delineate the influence of PVP molecular weight and concentration on the onset of nucleation and the precipitation rate of albendazole, tadalafil and ketoconazole. The tind and slope from the time-concentration profiles were used as the response values, whereas PVP concentration and the viscosity of the PVP solutions were used as the input predictors. It should be noted that the viscosity of the PVP solutions is used instead of the molecular weights of PVP, and therefore, the impact of the viscosity of solutions of PVP is the same as that of the molecular weight. The three levels for the concentration factor were 0.1, 0.5 and 1% (w/v), and the four levels for the viscosity factor were the viscosities of the solutions of PVP K15, K30, K60 and […]. […] The equilibrium solubility, viscosity of the PVP solutions, tind and slope of time-concentration profile during supersaturation of the drugs are given as the mean ± standard deviation (SD). […] Microsoft Excel (Redmond, WA, USA) was used for this analysis. The criteria for determining statistical significance in all tests were set at p < 0.05.

[4] = same concentration of repeating monomer units of PVP K15, K30, K60 and K120 (effect of molecular weight), p > 0.05
[5] = solution of 0.1% (w/v) PVP compared to the phosphate buffer pH 7.4, 37 °C, ANOVA
[6] = solutions of 0.5 and 1% (w/v) PVP, pH 7.4, 37 °C, ANOVA p < 0.05
[7] = 1 mPa.s isoviscous solutions of PVP K15, K30, K60 and K120, increasing PVP molecular weight, p < 0.05
[8] = PVP K15, K30, K60 and K120, PVP concentration increased from 0.1 to 0.5% and again from 0.5 to 1% (w/v), ANOVA p < 0.05
[9] = PVP K15, K30, K60 and K120, concentration increased from 0.1 to 0.5% and again from 0.5 to 1% (w/v), p < 0.05
[10] = PVP K15, K30, K60 and K120 compared at the same concentration (0.1, 0.5, 1% w/v), p > 0.05
[11] = same concentrations (0.1, 0.5, 1% w/v) of PVP K15, K30, K60 and K120 (effect of molecular weight), p > 0.05

## NS(=O)(=O)c1cc2c(cc1Cl)N=C(CSCc1ccccc1)NS2(=O)=O [benzthiazide]
[1]
  Onset time of nucleation: 4 min

## CCCSc1ccc2nc(NC(=O)OC)[nH]c2c1 [albendazole, Albendazole]
[2]; [4]
  Equilibrium solubility: No statistically significant increase
[2]; [5]
  Equilibrium solubility: no statistically significant increase
[2]; [6]
  Equilibrium solubility: statistically significant increase
[3]; [7]
  Slope of the time–concentration profile (precipitation rate): statistically significant difference
[3]; [8]
  Induction time (tind): statistically significant increase
[3]; [9]
  Slope of the time–concentration profile (precipitation rate): statistically significant difference
[3]; [10]
  Slope of the time–concentration profile (precipitation rate): no statistically significant differences
[3]
  Influence of PVP concentration on tind and slope of the time–concentration profile: significant influence
  Influence of viscosity of the PVP solution on tind or slope of the time–concentration profile: no significant influence
[3]; [11]
  Induction time (tind): no statistically significant differences

## CC(=O)N1CCN(c2ccc(OCC3COC(Cn4ccnc4)(c4ccc(Cl)cc4Cl)O3)cc2)CC1 (stereo not shown) [ketoconazole]
[2]; increasing the concentration of PVP to 1% (w/v), p < 0.05
  Equilibrium solubility: further statistically significant increase
[2]; [4]
  Equilibrium solubility: No statistically significant increase
[2]; solutions of 0.1% and 0.5% (w/v) PVP compared to phosphate buffer, p < 0.05
  Equilibrium solubility: statistically significant increase
[3]; 0.1% (w/v) PVP K15 compared with PVP K30, K60 and K120, p < 0.05
  Slope of the time–concentration profile (precipitation rate): statistically significant difference
[3]; [7]
  Slope of the time–concentration profile (precipitation rate): statistically significant difference
[3]; PVP K15, K30, K60 and K120, concentration increased from 0.1 to 0.5% (w/v), p < 0.05
  Slope of the time–concentration profile (precipitation rate): statistically significant difference
[3]; PVP K15, concentration increased from 0.1 to 0.5% and again from 0.5 to 1% (w/v), p < 0.05
  Induction time (tind): statistically significant increase
[3]; PVP K30, concentration increased from 0.1 to 0.5% (w/v), p > 0.05
  Induction time (tind): no statistically significant increase
[3]; PVP K30, concentration increased from 0.5 to 1% (w/v), p < 0.05
  Induction time (tind): statistically significant increase
[3]; PVP K60 and K120, concentration increased from 0.1 to 0.5% and again from 0.5 to 1% (w/v), p > 0.05
  Induction time (tind): no statistically significant differences
[3]
  Influence of PVP concentration on tind and slope of the time–concentration profile: significant influence
  Influence of viscosity of the PVP solution on tind or slope of the time–concentration profile: no significant influence
[3]; [11]
  Induction time (tind): no statistically significant differences

## CN1CC(=O)N2[C@H](c3ccc4c(c3)OCO4)c3[nH]c4ccccc4c3C[C@@H]2C1=O [tadalafil]
[2]; [4]
  Equilibrium solubility: No statistically significant increase
[2]; [5]
  Equilibrium solubility: no statistically significant increase
[2]; [6]
  Equilibrium solubility: statistically significant increase
[3]; [7]
  Slope of the time–concentration profile (precipitation rate): statistically significant difference
[3]; [8]
  Induction time (tind): statistically significant increase
[3]; [9]
  Slope of the time–concentration profile (precipitation rate): statistically significant difference
[3]; [10]
  Slope of the time–concentration profile (precipitation rate): no statistically significant differences
[3]
  Influence of PVP concentration on tind and slope of the time–concentration profile: significant influence
  Influence of viscosity of the PVP solution on tind or slope of the time–concentration profile: no significant influence
[3]; [11]
  Induction time (tind): no statistically significant differences
